Data taken from PMC10177447, “4-[(5-Methyl-1H-pyrazol-3-yl)amino]-2H-phenyl-1-phthalazinone Inhibits MCPyV T Antigen Expression in Merkel Cell Carcinoma Independent of Aurora Kinase A” (Cancers, 2023).
pIC50: −log10 of the molar value.

Target: GSK3b (Homo sapiens, UniProt P49841)
Assay: commercial GSK3 kinase assay (Promega) with ADP-Glo luminescence readout, dose-response
Type: biochemical

GSK3b, sequence (P49841 whole entry): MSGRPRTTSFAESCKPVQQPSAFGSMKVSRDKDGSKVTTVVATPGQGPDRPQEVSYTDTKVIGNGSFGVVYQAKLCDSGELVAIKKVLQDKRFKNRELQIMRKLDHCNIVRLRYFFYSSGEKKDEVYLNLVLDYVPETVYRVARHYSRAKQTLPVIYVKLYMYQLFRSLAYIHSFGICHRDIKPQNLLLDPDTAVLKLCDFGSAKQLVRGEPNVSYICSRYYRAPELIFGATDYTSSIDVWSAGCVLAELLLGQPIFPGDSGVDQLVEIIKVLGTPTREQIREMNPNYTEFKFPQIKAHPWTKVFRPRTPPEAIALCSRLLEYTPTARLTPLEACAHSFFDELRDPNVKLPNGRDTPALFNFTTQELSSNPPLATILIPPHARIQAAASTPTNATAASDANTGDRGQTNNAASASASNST

`Cc1cc(Nc2nn(-c3ccccc3)c(=O)c3ccccc23)n[nH]1` [PHT, 4-[(5-methyl-1H-pyrazol-3-yl)amino]-2H-phenyl-1-phthalazinone] gave a pIC50 of 7.54.
